Values joined by “and” are separate entries in the source; they are usually repeats but may differ in a detail not shown here. Equal values may be shown once. Active and inactive are the calls of the source.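 Rule for the calls: active = compounds with IC50 below 20 µM; inactive = the rest.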
target: Type-1 angiotensin II receptor (Homo sapiens) (UniProt P30556); experiment: AT1 receptor antagonists, beta-arrestin recruitment, SAR follow-up, selectivity assay for APJ antagonist project, cell-based, CHO-K1 PathHunter, luminescence (AID 488810); conditions: CHO-K1 AGTR1 PathHunter beta-arrestin, antagonist mode;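 note: agonist challenge with angiotensin II at 50 nM final near its EC80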
Sequence (P30556 whole entry, looked up): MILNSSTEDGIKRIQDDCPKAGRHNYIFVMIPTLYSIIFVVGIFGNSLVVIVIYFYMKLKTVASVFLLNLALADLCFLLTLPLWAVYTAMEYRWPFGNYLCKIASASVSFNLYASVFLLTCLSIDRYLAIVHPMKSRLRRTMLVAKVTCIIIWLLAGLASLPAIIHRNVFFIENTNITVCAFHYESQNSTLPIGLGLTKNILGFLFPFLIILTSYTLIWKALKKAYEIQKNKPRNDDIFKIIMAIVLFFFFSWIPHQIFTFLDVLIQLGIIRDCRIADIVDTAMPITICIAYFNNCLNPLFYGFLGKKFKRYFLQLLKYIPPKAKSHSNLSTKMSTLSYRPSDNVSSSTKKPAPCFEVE

Row | SMILES | IC50
1 | CCC[N+](CC#Cc1ccccc1)(CCC)CC(=O)c1ccc(Cl)cc1 | inactive
2 | CC(=O)c1ccc(N=C2C(=O)Nc3ccccc32)cc1 | 1.29 µM
3 | CCN(CC)CC(=O)c1ccc(-c2ccccc2)cc1 | 10 µM
4 | Oc1cccc(CSc2ncccn2)c1 | > 79 µM (inactive)
5 | Cc1ccnc(SCc2cc(=O)c(OC(=O)c3ccco3)co2)n1 | > 79 µM (inactive)
6 | Cc1ccnc(SCc2cc(=O)c(OC(=O)c3cc([N+](=O)[O-])ccc3Cl)co2)n1 | inactive
7 | CC1(C)CC2(CC(c3ccccc3Cl)c3ccc(OC(=O)c4ccccc4)cc3O2)NC(=S)N1 (stereo not given) | > 79 µM (inactive)
8 | CC1(C)CC2(CC(c3ccccc3Cl)c3cc(Cl)c(OC(=O)C4CC4)cc3O2)NC(=S)N1 (stereo not given) | > 79 µM (inactive)
9 | Cc1ccc(C(=O)CNc2ccccc2)cc1 | 3.37 µM
10 | Cc1cccc(C2CC3(CC(C)(C)NC(=S)N3)Oc3cc(O)c(Cl)cc32)c1 (stereo not given) | inactive
11 | Cc1cc(C)nc(NNS(=O)(=O)c2c(F)cc(F)cc2Br)n1 | 5.01 µM
12 | Cc1ccnc(SCc2cc(=O)c(OCc3ccccc3)co2)n1 | > 79 µM (inactive)
13 | O=C(Oc1coc(CSc2ncccn2)cc1=O)c1ccc(F)cc1 | > 79 µM (inactive)
14 | CSC1=NC2(CC(c3ccccc3)c3cc(Cl)c(O)cc3O2)CC(C)(C)N1 (stereo not given) | > 79 µM (inactive)
15 | O=C(Oc1coc(CSc2ncccn2)cc1=O)c1ccc(C(F)(F)F)cc1 | > 79 µM (inactive)
16 | COc1ccc(C(=O)CNc2cccc(F)c2)cc1 | 18.8 µM
17 | CCC1CCCCN1CC(=O)c1ccc(OC(F)F)cc1 (stereo not given) | inactive
18 | Cc1ccnc(SCc2cc(=O)c(O)co2)n1 | > 79 µM (inactive)
19 | Cc1ccc(C(=O)Oc2coc(CSc3ncccn3)cc2=O)cc1 | > 79 µM (inactive)
20 | Cc1ccnc(SCc2cc(=O)c(OC(=O)c3ccccc3Cl)co2)n1 | > 79 µM (inactive)
21 | Cc1ccc(C(=O)Oc2coc(CSc3ncccn3)cc2=O)cc1[N+](=O)[O-] | > 79 µM (inactive)
22 | Cc1cccc(C2CC3(CC(C)(C)NC(=S)N3)Oc3cc(O)cc(C)c32)c1 (stereo not given) | inactive
23 | COc1ccc(C2CC3(CC(C)(C)NC(=S)N3)Oc3cc(OC(C)=O)cc(C)c32)cc1 (stereo not given) | > 79 µM (inactive)
24 | O=C(CNc1cccc(Cl)c1)c1ccc(Br)cc1 | 3.03 µM
25 | CC(C)(C)c1ccc(C(=O)Oc2coc(CSc3ncccn3)cc2=O)cc1 | > 79 µM (inactive)
26 | CCOc1ccc(C(=O)Oc2coc(CSc3ncccn3)cc2=O)cc1 | > 79 µM (inactive)
27 | Cc1ccnc(SCc2cc(=O)c(OC(=O)c3ccc(Cl)cc3)co2)n1 | > 79 µM (inactive)

Row | SMILES | IC50
28 | Cc1ccc(NCC(O)c2ccccc2)cc1 (stereo not given) | > 79 µM (inactive)
29 | COc1ccc(N=C2C(=O)Nc3ccc(C)c(Br)c32)cc1 | > 79 µM (inactive)
30 | Cc1ccnc(S(=O)(=O)Cc2cc(=O)c(OC(=O)c3ccc(Cl)c([N+](=O)[O-])c3)co2)n1 | > 79 µM (inactive)
31 | CC1(C)CC2(CC(c3ccc(Cl)cc3)c3ccc(O)cc3O2)NC(=S)N1 (stereo not given) | inactive
32 | Cc1ccccc1NCC(=O)c1ccc(Cl)cc1 | 1.72 µM
33 | Cc1ccnc(SCc2cc(=O)c(OC(=O)c3cc(Cl)ccc3[N+](=O)[O-])co2)n1 | inactive
34 | Cc1cc(C)nc(SCc2cc(=O)c(OC(=O)c3cc(Cl)ccc3[N+](=O)[O-])co2)n1 | inactive
35 | Cc1ccc(NCC(=O)c2ccccc2)cc1 | 2.56 µM
36 | Cc1ccc(OCC(=O)OCC(=O)c2cccc([N+](=O)[O-])c2)cc1C | 15.8 µM
37 | Cc1ccc(C(=O)Oc2coc(CSc3nccc(C)n3)cc2=O)cc1 | > 79 µM (inactive)
38 | O=C(Nc1nc2ccc(F)cc2s1)c1ccccn1 | 5.27 µM
39 | Cc1ccc(N=C2C(=O)Nc3ccc(Br)cc32)cc1 | 3.92 µM
40 | O=C(CNc1ccccc1C(=O)O)c1ccccc1 | 2.1 µM
41 | Cc1c(O)ccc2c1OC1(CC2c2ccccc2Cl)CC(C)(C)NC(=O)N1 (stereo not given) | > 79 µM (inactive)
42 | O=C(Oc1coc(CSc2ncccn2)cc1=O)c1ccc(S(=O)(=O)N2CCOCC2)cc1 | > 79 µM (inactive)
43 | COc1ccc(C(=O)Oc2coc(CSc3nccc(C)n3)cc2=O)cc1 | > 79 µM (inactive)
44 | O=c1cc(CSc2ccccc2)occ1O | > 79 µM (inactive)
45 | Cc1ccnc(SCc2cc(=O)c(OC(=O)c3ccc(C)c([N+](=O)[O-])c3)co2)n1 | > 79 µM (inactive)
46 | O=c1cc(CCl)occ1O | > 79 µM (inactive)
47 | Cn1c(=O)c(C(=S)NC(=O)C2CC2)c(N)n(Cc2ccccc2)c1=O | inactive
48 | Cc1ccnc(SCc2cc(=O)c(OC(=O)c3cccc(Cl)c3)co2)n1 | > 79 µM (inactive)
49 | CSc1cccc(N=C2C(=O)Nc3ccccc32)c1 | 5.13 µM and 8.85 µM
50 | Cc1cccc(N=C2C(=O)Nc3c(Cl)cccc32)c1 | 3.32 µM
51 | COc1ccc(C(=O)Oc2coc(CSc3ncccn3)cc2=O)cc1 | > 79 µM (inactive)
52 | COc1cccc(/C=C/c2ccc3cccc(O)c3n2)c1OC | 14.1 µM
53 | COc1cc(C(=O)Oc2coc(CSc3ncccn3)cc2=O)c([N+](=O)[O-])cc1OC | > 79 µM (inactive)
54 | Cc1ccccc1NCC(O)c1ccc(Cl)cc1 (stereo not given) | > 79 µM (inactive)

Row | SMILES | IC50
55 | S=C1NCCc2ccccc2C1c1ccccc1Cl (stereo not given) | 16.5 µM
56 | Cc1cc(C)nc(SCc2cc(=O)c(OC(=O)c3ccc(Cl)c([N+](=O)[O-])c3)co2)n1 | > 79 µM (inactive)
57 | O=C(COC(=O)c1cccnc1)c1ccc(Cl)c(Cl)c1 | inactive
58 | O=C1Nc2ccccc2C1=Nc1ccc(Br)cc1 | 6.68 µM
59 | COC(=O)C1NN=C(C(=O)c2ccc(Cl)cc2)C1c1ccc(OC)cc1 (stereo not given) | 16.1 µM
60 | O=C(COC(=O)c1cccnc1)c1ccc(Cl)cc1 | > 79 µM (inactive)
61 | O=C(Oc1coc(CSc2ncccn2)cc1=O)c1ccc(S(=O)(=O)N2CCCC2)cc1 | > 79 µM (inactive)
62 | COc1ccc(NC2C(=O)Nc3ccccc32)cc1 (stereo not given) | > 79 µM (inactive)
63 | CC(C(=O)OCC(=O)c1cccc([N+](=O)[O-])c1)N1C(=O)C2C3C=CC(C3)C2C1=O (stereo not given) | inactive
64 | O=C1Nc2ccccc2C1=Nc1ccc(F)cc1 | 9.49 µM
65 | CC(=O)Nc1ccc(NC(=O)CCC(=O)OCC(=O)c2ccc(C)c([N+](=O)[O-])c2)cc1 | inactive
66 | Cc1cccc2c1NC(=O)C2=Nc1ccc(Cl)cc1 | 14.3 µM
67 | NC(=O)c1ccccc1NCC(=O)c1ccc(Cl)cc1 | 3.24 µM
68 | CC(=O)Oc1cc2c(cc1Cl)C(c1ccccc1Cl)CC1(CC(C)(C)NC(=S)N1)O2 (stereo not given) | inactive
69 | O=C(Nc1nc2c(F)cc(F)cc2s1)c1ccccn1 | 4.52 µM
70 | Oc1cccc2ccc(/C=C/c3ccccc3Cl)nc12 | 17 µM
71 | O=S(=O)(NN=Cc1ccc(-c2ccccc2Cl)o1)c1ccccc1 | inactive
72 | O=C(O)CN1C(=O)C(=O)c2ccccc21 | > 79 µM (inactive)
73 | COc1ccc(S(=O)(=O)NNc2nc(C)cc(C)n2)cc1Br | inactive
74 | Cc1c(C(=O)Oc2coc(CSc3ncccn3)cc2=O)cccc1[N+](=O)[O-] | > 79 µM (inactive)
75 | Cc1cccc(C2CC3(CC(C)(C)NC(=O)N3)Oc3cc(O)c(Cl)cc32)c1 (stereo not given) | > 79 µM (inactive)
76 | Cc1ccnc(SCc2cc(=O)c(OC(=O)c3ccc(OC(F)(F)F)cc3)co2)n1 | > 79 µM (inactive)
77 | CC1(C)CC2(CC(c3ccccc3F)c3cc(Cl)c(O)cc3O2)NC(=S)N1 (stereo not given) | > 79 µM (inactive)
78 | COc1ccc(C2CC3(CC(C)(C)NC(=S)N3)Oc3cc(O)cc(C)c32)cc1 (stereo not given) | > 79 µM (inactive)
79 | Cc1ccnc(SCc2cccc(O)c2)n1 | > 79 µM (inactive)
80 | Cc1cccc(C(=O)Oc2coc(CSc3nccc(C)n3)cc2=O)c1 | > 79 µM (inactive)
81 | COc1cccc(C(=O)Oc2coc(CSc3nccc(C)n3)cc2=O)c1 | > 79 µM (inactive)

Row | SMILES | IC50
82 | O=C(Oc1coc(CSc2ncccn2)cc1=O)c1ccc([N+](=O)[O-])cc1 | > 79 µM (inactive)
83 | Cc1ccnc(SCc2cc(=O)c(OC(=O)c3ccc(C#N)cc3)co2)n1 | > 79 µM (inactive)
84 | C=CCSC1=NC2(CC(c3ccc(C)cc3)c3c(C)cc(OC(C)=O)cc3O2)CC(C)(C)N1 (stereo not given) | > 79 µM (inactive)
85 | CCOc1ccc(N=C2C(=O)Nc3ccc(C)c(Br)c32)cc1 | 7.56 µM
86 | O=c1cc(CSc2ccc(Cl)cc2)nc(-c2ccccn2)[nH]1 | 9.04 µM
87 | COc1ccccc1NCC(O)c1ccc(Cl)cc1 (stereo not given) | > 79 µM (inactive)
88 | Cc1ccc(C(=O)Oc2coc(CSc3ncccn3)cc2=O)cc1C | > 79 µM (inactive)
89 | Cc1cc(C)nc(SCc2cc(=O)c(OC(=O)c3cc([N+](=O)[O-])ccc3Cl)co2)n1 | inactive
90 | CC(C)OC(=O)CN1C(=O)C(=O)c2ccccc21 | 4.99 µM and > 79 µM (inactive)
91 | CC(C)(C)c1ccc(-n2nc(C#N)c(Cl)cc2=O)cc1 | 8.21 µM
92 | O=C(COC(=O)c1ccncc1)c1ccc(Cl)c(Cl)c1 | 19.8 µM
93 | Cc1ccnc(SCc2cc(=O)c(OC(=O)c3ccccc3C)co2)n1 | > 79 µM (inactive)
94 | C=CCOc1ccc(CSc2nc(C)cc(C)n2)cc1Cl | > 79 µM (inactive)
95 | CC(C)Cc1nc2oc3c(Cl)ncnc3c2c2c1CCC2 | 15 µM
96 | Cc1ccnc(SCc2cc(=O)c(OC(=O)c3ccc(S(=O)(=O)N4CCCC4)cc3)co2)n1 | > 79 µM (inactive)
97 | Cc1cc(C)nc(NNS(=O)(=O)c2ccc(Cl)cc2)n1 | 12.4 µM
98 | O=C(Oc1coc(CSc2ncccn2)cc1=O)c1ccccc1 | > 79 µM (inactive)
99 | CC1(C)CC2(CC(c3ccccc3Cl)c3ccc(O)cc3O2)NC(=O)N1 (stereo not given) | > 79 µM (inactive)
100 | Cc1c(O)ccc2c1OC1(CC2c2ccccc2Cl)CC(C)(C)NC(=S)N1 (stereo not given) | > 79 µM (inactive)
101 | O=C(Oc1coc(CSc2ncccn2)cc1=O)c1cccc([N+](=O)[O-])c1 | > 79 µM (inactive)
102 | O=C(CNC(=O)c1ccco1)NCC(=O)OCC(=O)c1ccc(Cl)c([N+](=O)[O-])c1 | 4.78 µM
103 | Cc1cc(C)nc(SCc2ccc(OC(=O)c3ccccc3)c(Cl)c2)n1 | > 79 µM (inactive)
104 | O=C(CNS(=O)(=O)c1ccccc1)OCC(=O)c1cccc([N+](=O)[O-])c1 | inactive
105 | O=C(Oc1coc(CSc2ncccn2)cc1=O)c1ccc(Br)cc1 | > 79 µM (inactive)

From PubChem BioAssay AID488810 (Sanford-Burnham Center for Chemical Genomics, 2010)
